According to ChEMBL document CHEMBL1255557, “Heterobiaryl and heterobiaryl ether derived M5 positive allosteric modulators” (Bioorg Med Chem Lett, 2010):
Active and inactive are the calls of the source. The rule behind the calls is not given here.

What was measured:
[1] = target: T1, Muscarinic acetylcholine receptor M5 (Homo sapiens, UniProt P08912); assay: Positive allosteric modulation of muscarinic M5 receptor expressed in CHO cells assessed as effect on acetylcholine-induced intracellular calcium mobilization after 1 hr by FLIPR assay; assay type: functional, cell-based
T1 sequence (P08912 whole entry): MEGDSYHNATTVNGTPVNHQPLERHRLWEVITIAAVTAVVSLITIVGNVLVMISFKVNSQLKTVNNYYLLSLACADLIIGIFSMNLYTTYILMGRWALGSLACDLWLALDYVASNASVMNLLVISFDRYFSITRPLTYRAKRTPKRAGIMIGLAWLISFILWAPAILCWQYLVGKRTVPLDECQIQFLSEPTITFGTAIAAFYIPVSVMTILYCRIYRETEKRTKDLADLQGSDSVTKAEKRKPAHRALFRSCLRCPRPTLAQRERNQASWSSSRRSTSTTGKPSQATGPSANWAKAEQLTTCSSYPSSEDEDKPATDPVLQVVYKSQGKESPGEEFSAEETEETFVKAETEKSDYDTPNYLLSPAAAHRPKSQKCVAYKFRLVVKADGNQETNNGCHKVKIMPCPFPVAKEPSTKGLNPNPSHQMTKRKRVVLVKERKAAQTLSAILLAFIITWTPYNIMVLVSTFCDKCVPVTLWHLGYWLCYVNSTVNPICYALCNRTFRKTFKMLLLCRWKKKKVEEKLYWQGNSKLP

[2] = target: T2, Muscarinic acetylcholine receptor M5 (Homo sapiens) (UniProt P08912); assay: Positive allosteric modulation of muscarinic M5 receptor expressed in CHO cells assessed as effect on acetylcholine-induced intracellular calcium mobilization after 1 hr by FLIPR assay relative to acetylcholine; assay type: functional, cell-based
T2 sequence (whole entry): T1 sequence (P08912 whole entry)

[3] = target: T2, Muscarinic acetylcholine receptor M5 (Homo sapiens); assay: Positive allosteric modulation of muscarinic M5 receptor expressed in CHO cells assessed as potentiation of acetylcholine-induced intracellular calcium mobilization at 10 uM after 1 hr by FLIPR assay; assay type: functional, cell-based
[4] = target: T2, Muscarinic acetylcholine receptor M5 (Homo sapiens); assay: Positive allosteric modulation of muscarinic M5 receptor expressed in CHO cells assessed as potentiation of acetylcholine-induced intracellular calcium mobilization at 30 uM after 1 hr by FLIPR assay relative to acetylcholine; assay type: functional, cell-based
[5] = Partition coefficient, log P of the compound; assay type: physicochemical; settings: octanol/water

Activity [3]	Structure (SMILES)	also measured
–	O=C1C(=O)N(Cc2ccc(Oc3ccccn3)cc2)c2ccc(OC(F)(F)F)cc21	EC50 [1]: 3.2 µM; Emax [2]: 46%
inactive	COc1ccccc1COc1ccc2c(c1)C(=O)C(=O)N2Cc1ccc(-c2ccccc2)cc1	–
inactive	Cc1ccccc1CCOc1ccc2c(c1)C(=O)C(=O)N2Cc1ccc(-c2ccccc2)cc1	–
inactive	CC1CCCN(COc2ccc3c(c2)C(=O)C(=O)N3Cc2ccc(-c3ccccc3)cc2)C1 (stereo unspecified)	–
inactive	O=C1C(=O)N(Cc2ccc(-c3ccccc3)cc2)c2ccc(OCc3ccccn3)cc21	–
inactive	O=C1C(=O)N(Cc2ccc(-c3ccccc3)cc2)c2ccc(OCc3ccc(Cl)cc3)cc21	–
inactive	CCCOc1ccc2c(c1)C(=O)C(=O)N2Cc1ccc(-c2ccccc2)cc1	–
–	O=C1C(=O)N(Cc2ccc(-c3ccncc3)cn2)c2ccc(OC(F)(F)F)cc21	EC50 [1]: > 30 µM
–	O=C1C(=O)N(Cc2ccc(-c3ccncc3)cc2)c2ccc(OC(F)(F)F)cc21	EC50 [1]: 2.8 µM; Emax [2]: 60%
inactive	O=C1C(=O)N(Cc2ccc(-c3ccccc3)cc2)c2ccc(OCCc3ccccc3Cl)cc21	–
inactive	O=C(O)COc1ccc2c(c1)C(=O)C(=O)N2Cc1ccc(-c2ccccc2)cc1	–
inactive	O=C1C(=O)N(Cc2ccc(-c3ccccc3)cc2)c2ccc(OCc3cccnc3)cc21	–
inactive	O=C1C(=O)N(Cc2ccc(-c3ccccc3)cc2)c2ccc(OCC3CCC3)cc21	–
–	O=C1C(=O)N(Cc2ccc(-c3cccnc3)cc2)c2ccc(OC(F)(F)F)cc21	EC50 [1]: 1.6 µM; Emax [2]: 51%
inactive	CCOc1ccc2c(c1)C(=O)C(=O)N2Cc1ccc(-c2ccccc2)cc1	–
–	O=C1C(=O)N(Cc2ccc(-c3ccccc3)cn2)c2ccc(OC(F)(F)F)cc21	EC50 [1]: 3.1 µM; Emax [2]: 47%
inactive	O=C1C(=O)N(Cc2ccc(-c3ccccc3)cc2)c2ccc(OCc3cccc(OC(F)(F)F)c3)cc21	–
–	O=C1C(=O)N(Cc2ccc3c(c2)OCO3)c2ccc(OC(F)(F)F)cc21	EC50 [1]: 3.2 µM; Emax [2]: 90%
inactive	O=C1C(=O)N(Cc2ccc(-c3ccccc3)cc2)c2ccc(OCc3ccccc3F)cc21	–
inactive	O=C1C(=O)N(Cc2ccc(-c3ccccc3)cc2)c2ccc(OCc3cccc(C(F)(F)F)c3)cc21	–
–	O=C1C(=O)N(Cc2ccc(-c3cncnc3)cc2)c2ccc(OC(F)(F)F)cc21	EC50 [1]: 2.1 µM; Emax [2]: 53%

Activity [3]	Structure (SMILES)	also measured
–	O=C1C(=O)N(Cc2cccc(-c3ccccc3)c2)c2ccc(OC(F)(F)F)cc21	EC50 [1]: > 30 µM
–	O=C1C(=O)N(Cc2ccc(Cl)nc2)c2ccc(OC(F)(F)F)cc21	EC50 [1]: 2.4 µM; Emax [2]: 80%
inactive	O=C1C(=O)N(Cc2ccc(-c3ccccc3)cc2)c2ccc(OCc3ccc(F)cc3F)cc21	–
inactive	O=C1C(=O)N(Cc2ccc(-c3ccccc3)cc2)c2ccc(OCCc3ccccc3C(F)(F)F)cc21	–
inactive	O=C1C(=O)N(Cc2ccc(-c3ccccc3)cc2)c2ccc(OCC3CCCCC3)cc21	–
inactive	O=C1C(=O)N(Cc2ccc(-c3ccccc3)cc2)c2ccc(OCc3cccc(F)c3)cc21	–
–	O=C1C(=O)N(Cc2cccc(Oc3ccccc3)c2)c2ccc(OC(F)(F)F)cc21	EC50 [1]: > 30 µM
inactive	O=C1C(=O)N(Cc2ccc(-c3ccccc3)cc2)c2ccc(Oc3ncccn3)cc21	–
–	O=C1C(=O)N(Cc2ccc(-c3ccncc3)nc2)c2ccc(OC(F)(F)F)cc21	EC50 [1]: 4.4 µM; Emax [2]: 50%
inactive	COc1cccc(COc2ccc3c(c2)C(=O)C(=O)N3Cc2ccc(-c3ccccc3)cc2)c1	–
inactive	O=C1C(=O)N(Cc2ccc(-c3ccccc3)cc2)c2ccc(OCc3ccc(C(F)(F)F)cc3)cc21	–
inactive	O=C1C(=O)N(Cc2ccc(-c3ccccc3)cc2)c2ccc(OCc3ccccc3C(F)(F)F)cc21	–
inactive	O=C1C(=O)N(Cc2ccc(-c3ccccc3)cc2)c2ccc(OCCC(F)(F)F)cc21	–
inactive	COc1ccc(COc2ccc3c(c2)C(=O)C(=O)N3Cc2ccc(-c3ccccc3)cc2)cc1C(F)(F)F	–
inactive	CC(C)COc1ccc2c(c1)C(=O)C(=O)N2Cc1ccc(-c2ccccc2)cc1	–
inactive	O=C1C(=O)N(Cc2ccc(-c3ccccc3)cc2)c2ccc(Oc3ccccn3)cc21	–
inactive	O=C1C(=O)N(Cc2ccc(-c3ccccc3)cc2)c2ccc(OCc3ccccc3)cc21	–
–	O=C1C(=O)N(Cc2ccc(-c3cccnc3)cn2)c2ccc(OC(F)(F)F)cc21	EC50 [1]: > 30 µM
inactive	O=C1C(=O)N(Cc2ccc(-c3ccccc3)cc2)c2ccc(OCCc3ccccc3F)cc21	–
inactive	O=C1C(=O)N(Cc2ccc(-c3ccccc3)cc2)c2ccc(OCCN3CCCC3)cc21	–
inactive	O=C1C(=O)N(Cc2ccc(-c3ccccc3)cc2)c2ccc(OCc3c(F)cccc3F)cc21	–

Activity [3]	Structure (SMILES)	also measured
inactive	COc1ccc2c(c1)C(=O)C(=O)N2Cc1ccc(-c2ccccc2)cc1	–
inactive	O=C1C(=O)N(Cc2ccc(-c3ccccc3)cc2)c2ccc(OCc3cc(F)ccc3F)cc21	–
inactive	Cc1ccccc1COc1ccc2c(c1)C(=O)C(=O)N2Cc1ccc(-c2ccccc2)cc1	–
–	O=C1C(=O)N(Cc2ccc(-c3ccccc3)cc2)c2ccc(OC(F)(F)F)cc21	fold change (FC) [4]: 10; logP [5]: 4.6
–	O=C1C(=O)N(Cc2ccc(-c3ccccc3)cc2F)c2ccc(OC(F)(F)F)cc21	EC50 [1]: 5.9 µM; Emax [2]: 63%
–	O=C1C(=O)N(Cc2c(F)cc(-c3ccccc3)cc2F)c2ccc(OC(F)(F)F)cc21	EC50 [1]: > 30 µM
–	O=C1C(=O)N(Cc2ccc(Oc3ccccc3)cc2)c2ccc(OC(F)(F)F)cc21	fold change (FC) [4]: 5
inactive	O=C1C(=O)N(Cc2ccc(-c3ccccc3)cc2)c2ccc(OCc3ccccc3Cl)cc21	–
–	O=C1C(=O)N(Cc2ccc(Oc3nccs3)cc2)c2ccc(OC(F)(F)F)cc21	EC50 [1]: 2.8 µM; Emax [2]: 58%
inactive	O=C1C(=O)N(Cc2ccc(-c3ccccc3)cc2)c2ccc(OCc3cccc(Cl)c3)cc21	–
inactive	O=C1C(=O)N(Cc2ccc(-c3ccccc3)cc2)c2ccc(OCc3ccncc3)cc21	–
inactive	CN(C)CCOc1ccc2c(c1)C(=O)C(=O)N2Cc1ccc(-c2ccccc2)cc1	–
–	COc1cccc(Oc2ccc(CN3C(=O)C(=O)c4cc(OC(F)(F)F)ccc43)cc2)n1	EC50 [1]: 2.2 µM; Emax [2]: 51%
inactive	CCCCOc1ccc2c(c1)C(=O)C(=O)N2Cc1ccc(-c2ccccc2)cc1	–
inactive	O=C1C(=O)N(Cc2ccc(-c3ccccc3)cc2)c2ccc(OCCN3CCOCC3)cc21	–
inactive	O=C1C(=O)N(Cc2ccc(-c3ccccc3)cc2)c2ccc(OCc3ccc(F)cc3)cc21	–
–	O=C1C(=O)N(Cc2ccc(-c3cccnc3)nc2)c2ccc(OC(F)(F)F)cc21	logP [5]: 3; EC50 [1]: 4 µM; Emax [2]: 53%
inactive	O=C1C(=O)N(Cc2ccc(-c3ccccc3)cc2)c2ccc(OCc3ccc(OC(F)(F)F)cc3)cc21	–
inactive	COc1ccc(COc2ccc3c(c2)C(=O)C(=O)N3Cc2ccc(-c3ccccc3)cc2)cc1	–
inactive	O=C1C(=O)N(Cc2ccc(-c3ccccc3)cc2)c2ccc(OCC(F)(F)F)cc21	–
